This is an account of results in PMC4349456, “Automated genomic context analysis and experimental validation platform for discovery of prokaryote transcriptional regulator functions” (BMC Genomics, 2014).

This experiment deals with T1, Bxe_B3018 (MgxR).
T1 construct: GST-tagged (N-terminal, pGEX-KG / pGEX-T2), tag kept; expressed in Arctic Express cells; GSTrap and Superdex 200 purified
Description: fluorescence anisotropy, collapse of complex with fluorescein-labelled DNA operator. Also noted: species or system Paraburkholderia xenovorans. Conditions: apparent, from loss of DNA operator binding; 250 nM GST-Bxe_B3018, 1 nM DOS; pH 7.5, 30 °C, 1 mM MgCl2, 1 mM DTT.

On to `CC(=O)CN` [Aa, aminoacetone], for which the Kd came out at 2100 ± 400 µM.

Consider `CC(=O)C=O` [Mgx, methylglyoxal], for which the Kd worked out at 2100 ± 200 µM.

In the case of `CC(=O)CN(C)C` [N,N-dimethylaminoacetone], the Kd is 2600 ± 200 µM.
